Some test systems named below: UACC-257 melanoma; SK-MEL-5 melanoma; MCF7 breast; NCI-H460 lung; SK-MEL-28 melanoma; RPMI-8226 leukemia; M14 melanoma; NCI/ADR-RES ovarian; SR leukemia.
What all share (test): inhibition of tumour cell growth, NCI panel, 48 h

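Each compound was tested at five concentrations against cells in 96-well plates for 48 hours. GI50 = concentration required for 50% inhibition of growth. At the TGI there is no net growth.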 Activity calls are given as the source filed them. No stated cut-off is given here; in the data, active means GI50 below about 0.43 µM; inactive means the rest. Bounds are passed on as bounds.

With `FC(F)(F)Oc1cccc(-c2cnc3ccc(-c4ccncc4)nn23)c1`, the GI50 with UACC-257 melanoma was 2.02 µM; in the assay on SK-MEL-5 melanoma, 1.49 µM; with MCF7 breast, 1.56 µM; in the assay on NCI-H460 lung, 0.996 µM; in the assay on SK-MEL-28 melanoma, 2.53 µM; in the assay with RPMI-8226 leukemia, 1.31 µM. The values for the GI50 in the assay on M14 melanoma, with NCI/ADR-RES ovarian and with SR leukemia were 0.769 µM, 2.09 µM and 0.744 µM, respectively. For the same compound, the TGI was 3.23 µM in the assay with SK-MEL-5 melanoma; 6.12 µM with MCF7 breast; more than 100 µM with NCI-H460 lung; more than 100 µM with SK-MEL-28 melanoma; 4.84 µM in the assay with RPMI-8226 leukemia; more than 100 µM in the assay with M14 melanoma. Besides, the TGI with NCI/ADR-RES ovarian was found to be 95.5 µM; with SR leukemia, 11.8 µM.
As to `CC(=O)NCCc1c2c(c3nccc4c3c1Nc1ccccc1-4)OCS2`, the GI50 with UACC-257 melanoma is 13.8 µM; in the assay on SK-MEL-5 melanoma, 2.99 µM; with MCF7 breast it was 0.801 µM; in the assay with NCI-H460 lung, 0.498 µM; in the assay with SK-MEL-28 melanoma, 3.45 µM; in the assay with RPMI-8226 leukemia, 0.895 µM. The GI50 is 1 µM in the assay with M14 melanoma, 4.83 µM in the assay on NCI/ADR-RES ovarian and 0.0354 µM in the assay with SR leukemia. Further, the TGI amounted to 27 µM in the assay on UACC-257 melanoma; 14.5 µM with SK-MEL-5 melanoma; 8.47 µM in the assay with MCF7 breast; 9.98 µM in the assay on NCI-H460 lung; 15.7 µM in the assay with SK-MEL-28 melanoma; 4.57 µM with M14 melanoma. Further, the results for the TGI in the assay with NCI/ADR-RES ovarian and in the assay on SR leukemia were more than 38.2 µM and more than 100 µM, respectively.
Regarding `CC12CCC3C(CCC4Cc5[nH]c6ccccc6c5CC43C)C1CCC2O` (stereo not given), the GI50 is more than 100 µM in the assay on UACC-257 melanoma; 0.75 µM in the assay on SK-MEL-5 melanoma; 0.373 µM in the assay with MCF7 breast; 0.609 µM in the assay on NCI-H460 lung; 0.813 µM with SK-MEL-28 melanoma; 1.13 µM with RPMI-8226 leukemia. Also, the figures for the GI50 in the assay with M14 melanoma, in the assay with NCI/ADR-RES ovarian and in the assay with SR leukemia were 0.753 µM, 0.481 µM and 0.342 µM, respectively. The TGI in the assay on UACC-257 melanoma is more than 100 µM; with SK-MEL-5 melanoma it was more than 100 µM; in the assay on MCF7 breast, more than 100 µM; with NCI-H460 lung, more than 100 µM; in the assay with SK-MEL-28 melanoma it was more than 100 µM; in the assay with RPMI-8226 leukemia, 4.52 µM. Moreover, the TGI was more than 19.8 µM in the assay on M14 melanoma, 5.54 µM with NCI/ADR-RES ovarian and 1.32 µM in the assay with SR leukemia.
Turning to `CN(Cc1cnc2nc(N)nc(N)c2n1)c1ccc(C(=O)NC(CCC(=O)O)C(=O)O)cc1C(F)(F)F` (stereo not given), the TGI in the assay on UACC-257 melanoma, with SK-MEL-5 melanoma, with MCF7 breast, with NCI-H460 lung, in the assay with SK-MEL-28 melanoma and in the assay on RPMI-8226 leukemia was more than 100 µM throughout. Further, the TGI is more than 100 µM in the assay on M14 melanoma, more than 100 µM in the assay with NCI/ADR-RES ovarian and 1.24 µM in the assay on SR leukemia.
On to `O=C(Nc1ccc(Cl)c(Cl)c1)c1cccc(NC2=C(Cl)C(=O)N(Cc3ccccc3)C2=O)c1`, for which the GI50 is 41.1 µM in the assay with UACC-257 melanoma; more than 100 µM in the assay on SK-MEL-5 melanoma; 22.5 µM with MCF7 breast; 30.3 µM in the assay on NCI-H460 lung; more than 100 µM in the assay with SK-MEL-28 melanoma; 14.4 µM in the assay on RPMI-8226 leukemia. The GI50 in the assay on M14 melanoma is 66 µM; with NCI/ADR-RES ovarian, 24.4 µM; with SR leukemia it was 8.37 µM. Also, the TGI with UACC-257 melanoma was more than 100 µM; in the assay with SK-MEL-5 melanoma it was more than 100 µM; in the assay on MCF7 breast, 96.1 µM; in the assay on NCI-H460 lung, more than 100 µM; in the assay on SK-MEL-28 melanoma, more than 100 µM; in the assay with RPMI-8226 leukemia it was 44.7 µM. Further, the TGI in the assay with M14 melanoma is more than 100 µM; in the assay on NCI/ADR-RES ovarian, 88.9 µM; in the assay on SR leukemia, 68 µM.
On to `Cc1c(N2CCCC2)cc2c(c1NC(=O)c1ccccc1Cl)C(C)(C)CC2(C)C`, for which the TGI in the assay with UACC-257 melanoma turned out to be 24.1 µM; in the assay on SK-MEL-5 melanoma, 33.7 µM; in the assay on MCF7 breast, 28.4 µM; in the assay with NCI-H460 lung, 26 µM; in the assay on SK-MEL-28 melanoma, 33.1 µM; with RPMI-8226 leukemia it was 34.2 µM. Moreover, the TGI in the assay on M14 melanoma is 26.8 µM; with NCI/ADR-RES ovarian, 29.5 µM; with SR leukemia it was 38.1 µM.
`CCOC(=O)c1ccc2[nH]c(-c3ccc(S(=O)(=O)F)cc3)cc(=O)c2c1`: the TGI in the assay with UACC-257 melanoma, in the assay on SK-MEL-5 melanoma, in the assay on MCF7 breast, in the assay on NCI-H460 lung, in the assay with SK-MEL-28 melanoma and in the assay with RPMI-8226 leukemia was more than 100 µM in each case. The TGI in the assay on M14 melanoma, with NCI/ADR-RES ovarian and in the assay on SR leukemia was more than 100 µM each time.
Turning to `FC(F)(F)c1nc(N2CCCC2)ncc1-c1nnnn1-c1ccc(Cl)cc1`, the GI50 in the assay on UACC-257 melanoma was 7.11 µM; in the assay on SK-MEL-5 melanoma, 12 µM; in the assay on MCF7 breast, 14.3 µM; in the assay on NCI-H460 lung it was 11.7 µM; in the assay on SK-MEL-28 melanoma, 20 µM; in the assay on RPMI-8226 leukemia it was 1.41 µM. Also, the GI50 in the assay on M14 melanoma is 20.2 µM; in the assay on NCI/ADR-RES ovarian it was 23 µM; with SR leukemia it was 2.53 µM. The TGI is 69.5 µM with UACC-257 melanoma; 28.3 µM in the assay with SK-MEL-5 melanoma; more than 100 µM in the assay with MCF7 breast; 90.2 µM in the assay on NCI-H460 lung; 74.8 µM with SK-MEL-28 melanoma; 12.8 µM in the assay with RPMI-8226 leukemia. The TGI with M14 melanoma came out at 55.3 µM; in the assay with NCI/ADR-RES ovarian, 62.2 µM; in the assay on SR leukemia, 6.24 µM.
With `O=C[C@@H](CO)O[C@H](C=O)c1c[nH]c(=O)[nH]c1=O`, the TGI in the assay with UACC-257 melanoma came to 657 µM; in the assay on SK-MEL-5 melanoma it was 309 µM; in the assay with MCF7 breast it was 428 µM; in the assay on NCI-H460 lung, 508 µM; with SK-MEL-28 melanoma it was 237 µM; in the assay with RPMI-8226 leukemia, 672 µM. Also, the TGI with M14 melanoma was found to be 527 µM; with NCI/ADR-RES ovarian, 536 µM; in the assay on SR leukemia it was 614 µM.
Turning to `CCc1nc(N)nc(N)c1-c1ccc(NCCN)c([N+](=O)[O-])c1`, the TGI in the assay with UACC-257 melanoma was 72.9 µM; with SK-MEL-5 melanoma, 40 µM; in the assay on MCF7 breast it was more than 78.3 µM; in the assay on NCI-H460 lung it was more than 100 µM; with SK-MEL-28 melanoma, more than 100 µM; in the assay with RPMI-8226 leukemia, more than 88.8 µM. For the same compound, the results for the TGI with M14 melanoma, in the assay with NCI/ADR-RES ovarian and in the assay on SR leukemia were 75.5 µM, more than 100 µM and more than 55.8 µM, respectively.
For the compound `COc1cccc(C2c3cc4c(cc3OC(C)(N3CCCC3)C2C)OCO4)c1OC` (stereo not given), the TGI was 64.1 µM with UACC-257 melanoma; 28.4 µM in the assay on SK-MEL-5 melanoma; 98.6 µM in the assay on MCF7 breast; 28.4 µM in the assay on NCI-H460 lung; more than 100 µM in the assay with SK-MEL-28 melanoma; more than 100 µM in the assay with RPMI-8226 leukemia. Besides, the TGI is 45.5 µM in the assay with M14 melanoma, 76.8 µM with NCI/ADR-RES ovarian and 22.5 µM with SR leukemia.
With `COc1ccc(C2CC(c3cc(OC)c(OC)c(OC)c3)=NO2)cc1OCCCCOc1cc2c(cc1OC)C(=O)N1CCC[C@H]1C=N2` (stereo not given in full), the GI50 in the assay on UACC-257 melanoma was 2.33 µM; with SK-MEL-5 melanoma, 1.47 µM; in the assay on MCF7 breast, 1.75 µM; with NCI-H460 lung, 1.85 µM; with SK-MEL-28 melanoma, 2.07 µM; in the assay on RPMI-8226 leukemia, 1.43 µM. Moreover, the GI50 with M14 melanoma was 1.73 µM; with NCI/ADR-RES ovarian it was 6.95 µM; with SR leukemia, 1.12 µM. Moreover, the TGI in the assay on UACC-257 melanoma was 4.96 µM; in the assay on SK-MEL-5 melanoma it was 2.79 µM; with MCF7 breast, 12.3 µM; in the assay on NCI-H460 lung, 4 µM; with SK-MEL-28 melanoma it was 4.1 µM; with RPMI-8226 leukemia, 4.31 µM. The TGI in the assay with M14 melanoma is 3.45 µM; in the assay on NCI/ADR-RES ovarian it was 37.5 µM; with SR leukemia, 3.26 µM.
Regarding `COC(=O)CCC(=O)C(=O)OC`, the GI50 is 30800 µM in the assay on UACC-257 melanoma; 94300 µM in the assay on SK-MEL-5 melanoma; 34100 µM with NCI-H460 lung; 17600 µM in the assay with SK-MEL-28 melanoma; 17200 µM in the assay with RPMI-8226 leukemia; 32300 µM with M14 melanoma. The GI50 in the assay with NCI/ADR-RES ovarian was 72600 µM; in the assay with SR leukemia, 4360 µM. Besides, the outcome with MCF7 breast was inactive. In addition, the TGI with SK-MEL-28 melanoma worked out at 60400 µM; with RPMI-8226 leukemia, 51200 µM; in the assay on SR leukemia it was 41100 µM.
Regarding `Cc1ccc([N+](=O)[O-])cc1NC(=O)Nc1cccc(F)c1`, the GI50 was 4.23 µM with UACC-257 melanoma; 4.04 µM with SK-MEL-5 melanoma; 3.63 µM with MCF7 breast; 3.09 µM in the assay on NCI-H460 lung; 19.8 µM with SK-MEL-28 melanoma; 2.82 µM in the assay with RPMI-8226 leukemia. Also, the GI50 in the assay on M14 melanoma is 22.1 µM; with NCI/ADR-RES ovarian, 3.37 µM; in the assay on SR leukemia, 5.63 µM. For the same compound, the TGI in the assay on UACC-257 melanoma was more than 100 µM; with SK-MEL-5 melanoma, more than 100 µM; in the assay on MCF7 breast it was more than 100 µM; with NCI-H460 lung, 16.1 µM; with SK-MEL-28 melanoma, more than 100 µM; with RPMI-8226 leukemia, 20.7 µM. For the same compound, the TGI with M14 melanoma is more than 100 µM; in the assay on NCI/ADR-RES ovarian it was more than 100 µM; with SR leukemia it was 64.6 µM.
